The results in this text go back to patent US9241488B2, “Azole derivative, method for producing azole derivative, and intermediate compound” (KUREHA CORPORATION, priority 2011, dated 2016).

For data set [1], the system named is Barley stripe (Pyrenophora graminea). Kind of data set: Anti-bacterial effect of V′ compounds on various microorganisms (plate medium), P.g. The format is cell-based. As to conditions: 5 mg/L.
In data set [2] the test system is wheat leaf blight-causing microorganisms. The experiment in a line: Anti-bacterial effect on wheat leaf blight-causing microorganisms (PDA plate, mycelial growth inhibition). The format is cell-based, Septoria tritici. As to conditions: 1.25 mg/L in PDA plate medium, 25° C., 14 days; for inhibition at 1.25 µg/mL: 336 h, read-out: Growth inhibition grade.
The test system of data set [3] is Snow mold of winter wheat (Microdochium nivale). The experiment in a line: Anti-bacterial effect of V′ compounds on various microorganisms (plate medium), M.n. In kind it is cell-based. As to conditions: 5 mg/L.
Data set [4] relates to Barley leaf blotch (Rhynchosporium secalis). The experiment in a line: Anti-bacterial effect of V′ compounds on various microorganisms (plate medium), R. sec. In kind it is cell-based. Particulars: 5 mg/L.
Data set [5] deals with Rice blast (Pyricularia oryzae). In kind it is cell-based. Particulars: 5 mg/L.
The test system of data set [6] is Wheat leaf blight (Septoria tritici). Kind of data set: Anti-bacterial effect of V′ compounds on various microorganisms (plate medium), S.t. As to conditions: 5 mg/L. The format is cell-based.
In data set [7] the test system is Wheat Septoria nodorum blotch microorganism (Phaeosphaeria nodorum). The experiment in a line: Anti-bacterial effect of V′ compounds on various microorganisms (plate medium), P.n. As to conditions: 5 mg/L. In kind it is cell-based.
For data set [8], the system named is Swollen rice seedling (Rhizopus oryzae). The experiment in a line: Anti-bacterial effect of V′ compounds on various microorganisms (plate medium), R.o. Particulars: 5 mg/L. In kind it is cell-based.
The subject of a further data set is G.g. Kind of data set: Anti-bacterial effect of V′ compounds on various microorganisms (plate medium), G.g. In kind it is cell-based. As to conditions: 5 mg/L.
In data set [9] the test system is wheat brown rust-causing microorganisms. Kind of data set: Controlling effect on wheat brown rust caused by seed treatment (pot test). In kind it is in vivo, Puccinia recondita. As to conditions: 2 mg compound per 1 g wheat seeds, inoculated 21 days after seeding, evaluated 14 days after inoculation. As for the experimental part:
An efficacy against wheat brown rust was evaluated by performing a pot test. […] The pots were kept in a greenhouse with supplying water underneath. Twenty one days after the seeding, wheat brown rust-causing microorganisms was inoculated, and the pots were stored in a humidity chamber for 2 days. The pots were kept again in a greenhouse with supplying water underneath. Fourteen days after the inoculation, a lesion degree was evaluated, and a protective value was calculated. The protective value was calculated with use of the following formula, and was defined as a wheat brown rust protective value. Protective value=(1−lesion degree in treated plot/lesion degree in untreated plot)×100(%)

Data set [10] has as its system wheat. The experiment in a line: Growth inhibition test for wheat caused by seed treatment (pot test). Particulars: 2 mg compound per 1 g wheat seeds, 36 days after seeding, larger index = smaller damage.
Procedure: Harmful effect (growth inhibition) to wheat was evaluated by performing a pot test. Compounds (2 mg) of the present invention and a comparative compound (2 mg) were weighed, and those compounds were each dissolved in DMSO (18 μl). Chemical thus prepared were applied to wheat seeds (1 g) in a vial, and eight wheat seeds were seeded in a pot of 80 cm^2. The seeds were cultivated in a greenhouse with supplying water underneath. 36 days after the seeding, damage (growth inhibition) was evaluated.
The damage (growth inhibition) index was calculated on the basis of the following table. As the growth inhibition index becomes larger, the damage of growth inhibition caused by the treatment of the chemicals becomes smaller.
The subject of data set [11] is wheat-brown-rust-causing microorganisms. The experiment in a line: Controlling effect on wheat brown rust (spray, pot test). In kind it is in vivo, Puccinia recondita. As to conditions: 1 mg/L sprayed at 1,000 L/ha, wheat NORIN No. 61, 9 to 14 days after inoculation. In outline: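 Two-leaf wheat (NORIN No. 61) sprayed with formulation at 1 mg/L, 1,000 L/ha, then spray-inoculated with rust spores and held 48 hours at 25° C, high humidity, then greenhouse.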

Data set [12] deals with Rice bacterial seeding blight (Rhizopus oryzae). Kind of data set: Anti-bacterial effect on various microorganisms (plate medium), R.o. The format is cell-based.
In data set [13] the test system is Wheat pink snow mold (Microdochium nivale). Kind of data set: Anti-bacterial effect on various microorganisms (plate medium), M.n. In kind it is cell-based.
Data set [14] relates to wheat. Kind of data set: Harmful effect of necrosis to wheat caused by seed treatment (pot test). The format is in vivo. As to conditions: 2 mg compound per 1 g wheat seeds, 31 days after seeding, smaller index = smaller harmful effect. How it is done: Thirty one days after the seeding, a degree of necrosis (necrosis area ratio) in wheat was evaluated. By using criteria shown in Table 7, necrosis indexes were calculated on the basis of the necrosis area ratio.

Data set [15] deals with Wheat Septoria nodorum blotch microorganism (Phaeosphaeria nodorum). The experiment in a line: Anti-bacterial effect on various microorganisms (plate medium), P.n. In kind it is cell-based.
Data set [16] deals with Sclerotinia rot (Sclerotinia sclerotiorum). Kind of data set: Anti-bacterial effect on various microorganisms (plate medium), S.s. The format is cell-based.
For data set [17], the system named is Alternaria blotch (Alternaria alternata). Kind of data set: Anti-bacterial effect on various microorganisms (plate medium), A.m. The format is cell-based.
Data set [18] concerns Wheat fusarium blight (Fusarium graminearum). In kind it is cell-based.
Data set [19] has as its system Cucumber fusarium wilt (Fusarium oxysporum). Kind of data set: Anti-bacterial effect on various microorganisms (plate medium), F.c. In kind it is cell-based.
Data set [20] deals with Wheat eye spot (Pseudocercoporella herpotrichoides). The experiment in a line: Anti-bacterial effect on various microorganisms (plate medium), P.h. The format is cell-based.
For data set [21], the system named is Barley loose smut (Ustilago nuda). Kind of data set: Anti-bacterial effect on various microorganisms (plate medium), U.n. The format is cell-based.
In data set [22] the test system is Rice blast (Pyricularia oryzae). The format is cell-based.
Data set [23] relates to Rice bakanae disease (Giberella fujikuroi). Kind of data set: Anti-bacterial effect on various microorganisms (plate medium), G.f. In kind it is cell-based.
In data set [24] the test system is Barley leaf blotch (Rhynchosporium secalis). Kind of data set: Anti-bacterial effect on various microorganisms (plate medium), R. sec. In kind it is cell-based.
Data set [25] has as its system Gray mold (Botritis cinerea). The experiment in a line: Anti-bacterial effect on various microorganisms (plate medium), B.c. The format is cell-based.

Read-outs that look alike come from different tables or passages of the source.

`CC1(C)OCC2(CCC(Cc3ccc(Cl)cc3)C2(O)Cn2cncn2)CO1` (stereo not drawn) [Compound V′-a-cis, 2-(4-chlorobenzyl)-8,8-dimethyl-1-[1,2,4]triazole-1-ylmethyl-7,9-dioxaspiro[4,5]decane-1-ol]: in data set [1], the “Anti-bacterial effect index against various microorganisms P.g” value is recorded as 5 (% Mycerial growth inhibition of 80% or higher). In data set [2], the inhibition at 1.25 µg/mL was greater than 80%. Besides, in data set [3], the “Anti-bacterial effect index against various microorganisms M.n” value is 5 (% Mycerial growth inhibition of 80% or higher). In data set [4], the “Anti-bacterial effect index against various microorganisms R. sec” value is listed as 5 (% Mycerial growth inhibition of 80% or higher). Besides, the “Anti-bacterial effect index against various microorganisms P.o” value in data set [5] is given as 5 (% Mycerial growth inhibition of 80% or higher). The “Anti-bacterial effect index against various microorganisms S.t” value in [6] is recorded as 5 (% Mycerial growth inhibition of 80% or higher). In data set [7], the “Anti-bacterial effect index against various microorganisms P.n” value is 5 (% Mycerial growth inhibition of 80% or higher). The “Anti-bacterial effect index against various microorganisms R.o” value in [8] was 5 (% Mycerial growth inhibition of 80% or higher). Moreover, the “Anti-bacterial effect index against various microorganisms G.g” value with G.g is 5 (% Mycerial growth inhibition of 80% or higher).

For `CC1(C)CC[C@H](Cc2ccc(Cl)cc2)[C@@]1(O)Cn1cncn1` (racemic) [Compound (1), reference compound], the inhibition at 1.25 µg/mL in data set [2] is 60 to 80%; in data set [12] (Rhizopus arrhizus, 1.25 mg/L, read-out: Growth inhibition grade R.o) it was 60 to 80%; in [13] (Microdochium nivale, 1.25 mg/L, read-out: Growth inhibition grade M.n) it was 20 to 40%. The “wheat brown rust protective value” in [9] turned out to be 95%. For the same molecule, the “damage (growth inhibition) index” value in the data set on wheat [10] is on record as 2 (Less than 60% but 40% or more). For the same molecule, in data set [11], the Protective value is 3 (41 to 60). Also, the inhibition at 5 µg/mL in [12] (Rhizopus arrhizus, 5 mg/L, read-out: Growth inhibition grade R.o) is greater than 80%; in [13] (Microdochium nivale, 5 mg/L, read-out: Growth inhibition grade M.n), greater than 80%. In addition, the necrosis index in the data set on wheat [14] is 1 (1% or more but less than 5%).

Regarding `COC[C@]1(CCl)CC[C@@H](Cc2ccc(Cl)cc2)[C@]1(O)Cn1cncn1` (racemic) [Compound I-16a, (1RS,2RS,5SR)-5-(4-chlorobenzyl)-2-chloromethyl-2-methoxymethyl-1H-[1,2,4]triazole-1-ylmethylcyclopentanol], the “Growth inhibition grade P.n” value in [15] (1.25 mg/L) and in [15] (5 mg/L) was 5 (% Mycerial growth inhibition of 80% or higher) throughout. Besides, the “Growth inhibition grade S.s” value in data set [16] (1.25 mg/L) and in [16] (5 mg/L) was 5 (% Mycerial growth inhibition of 80% or higher) throughout. In [2], the Growth inhibition grade is reported as 5 (% Mycerial growth inhibition of 80% or higher). In addition, the “wheat brown rust protective value” in data set [9] is listed as 100%. Moreover, the “Growth inhibition grade A.m” value is 4 (% Mycerial growth inhibition of less than 80 to 60% or higher) in [17] (1.25 mg/L) and 5 (% Mycerial growth inhibition of 80% or higher) in [17] (5 mg/L). For the same molecule, the Protective value in data set [11] is given as 4 (61 to 80). Moreover, the “Growth inhibition grade F.g” value in data set [18] (1.25 mg/L) and in data set [18] (5 mg/L) was 5 (% Mycerial growth inhibition of 80% or higher) each time. For the same molecule, the “Growth inhibition grade R.o” value in data set [12] (1.25 mg/L) and in [12] (5 mg/L) was 5 (% Mycerial growth inhibition of 80% or higher) throughout. Besides, the “Growth inhibition grade F.c” value in data set [19] (1.25 mg/L) and in data set [19] (5 mg/L) was 5 (% Mycerial growth inhibition of 80% or higher) in each case. For the same molecule, the “Growth inhibition grade P.h” value in data set [20] (1.25 mg/L) was 4 (% Mycerial growth inhibition of less than 80 to 60% or higher); in [20] (5 mg/L), 5 (% Mycerial growth inhibition of 80% or higher). The “Growth inhibition grade M.n” value in data set [13] (1.25 mg/L) and in [13] (5 mg/L) was 5 (% Mycerial growth inhibition of 80% or higher) each time. For the same molecule, the “Growth inhibition grade U.n” value in [21] (1.25 mg/L) and in data set [21] (5 mg/L) was 5 (% Mycerial growth inhibition of 80% or higher) throughout. Also, the “Growth inhibition grade P.o” value in data set [22] (1.25 mg/L) and in data set [22] (5 mg/L) was 5 (% Mycerial growth inhibition of 80% or higher) in each case. The “Growth inhibition grade G.f” value in data set [23] (1.25 mg/L) and in data set [23] (5 mg/L) was 5 (% Mycerial growth inhibition of 80% or higher) throughout. The “Growth inhibition grade R. sec” value in data set [24] (1.25 mg/L) and in [24] (5 mg/L) was 5 (% Mycerial growth inhibition of 80% or higher) each time. The “Growth inhibition grade B.c” value in [25] (1.25 mg/L) and in data set [25] (5 mg/L) was 5 (% Mycerial growth inhibition of 80% or higher) each time.

As to `CC1OCC2(CCC(Cc3ccc(Cl)cc3)C2(O)Cn2cncn2)CO1` (stereo not shown) [Compound V′-e, 2-(4-chlorobenzyl)-8-methyl-1-(1H-1,2,4-triazole-1-ylmethyl)-7,9-dioxaspiro[4,5]decane-1-ol], the “Anti-bacterial effect index against various microorganisms P.g” value in data set [1] is reported as 5 (% Mycerial growth inhibition of 80% or higher). The inhibition at 1.25 µg/mL in data set [2] is greater than 80%. The “Anti-bacterial effect index against various microorganisms M.n” value in [3] is recorded as 5 (% Mycerial growth inhibition of 80% or higher). In data set [4], the “Anti-bacterial effect index against various microorganisms R. sec” value was 5 (% Mycerial growth inhibition of 80% or higher). In addition, the “wheat brown rust protective value” in data set [9] is 100%. Further, the “Anti-bacterial effect index against various microorganisms P.o” value in data set [5] was 5 (% Mycerial growth inhibition of 80% or higher). Besides, the “Anti-bacterial effect index against various microorganisms S.t” value in data set [6] was 5 (% Mycerial growth inhibition of 80% or higher). Moreover, the “Anti-bacterial effect index against various microorganisms P.n” value in data set [7] is 5 (% Mycerial growth inhibition of 80% or higher). Besides, the “Anti-bacterial effect index against various microorganisms R.o” value in [8] is on record as 5 (% Mycerial growth inhibition of 80% or higher). Further, in the data set on G.g, the “Anti-bacterial effect index against various microorganisms G.g” value is recorded as 5 (% Mycerial growth inhibition of 80% or higher).

For `OC1(Cn2cncn2)C(Cc2ccc(Cl)cc2)CCC12COCOC2` (stereo not shown) [Compound V′-d, 2-(4-chlorobenzyl)-1-(1H-1,2,4-triazole-1-ylmethyl)-7,9-dioxaspiro[4,5]decane-1-ol], the “Anti-bacterial effect index against various microorganisms P.g” value in [1] was 5 (% Mycerial growth inhibition of 80% or higher). For the same molecule, the “Anti-bacterial effect index against various microorganisms M.n” value in [3] is on record as 3 (% Mycerial growth inhibition of less than 60 to 40% or higher). Further, the “Anti-bacterial effect index against various microorganisms R. sec” value in data set [4] is recorded as 5 (% Mycerial growth inhibition of 80% or higher). Further, the “wheat brown rust protective value” in data set [9] turned out to be 100%. Besides, the “Anti-bacterial effect index against various microorganisms P.o” value in [5] was 5 (% Mycerial growth inhibition of 80% or higher). Also, in data set [11], the Protective value is listed as 4 (61 to 80). Also, the “Anti-bacterial effect index against various microorganisms S.t” value in data set [6] is 4 (% Mycerial growth inhibition of less than 80 to 60% or higher). Further, the “Anti-bacterial effect index against various microorganisms P.n” value in [7] is 5 (% Mycerial growth inhibition of 80% or higher). The “Anti-bacterial effect index against various microorganisms R.o” value in data set [8] is recorded as 5 (% Mycerial growth inhibition of 80% or higher). Also, the “Anti-bacterial effect index against various microorganisms G.g” value in the data set on G.g was 5 (% Mycerial growth inhibition of 80% or higher).

A word on the inhibition: it is the change of the read-out against control, counted positive when it falls.
